# Measured values reported in patent EP0810207A1, “Bis-ortho-substituted benzoylguanidines, process for their preparation, their use as medicament or diagnostic agent and medicaments containing them” (HOECHST AKTIENGESELLSCHAFT, priority 1996, dated 1997).
# Structures can show the parent of a compound that is named as a salt.
# Biological target: T1, Na^+/H^+-Exchangers von Kaninchenerythrocyten (Oryctolagus cuniculus, UniProt P23791)
# T1 construct: den Na^+-Influx in die Erythrocyten via Na^+/H^+-Austausch flammenphotometrisch bestimmen zu können; from tissue; host or cells: Erythrocytes from ear-artery blood of cholesterol-fed New Zealand White rabbits
# Assay: Inhibition of the Na+/H+ exchanger of rabbit erythrocytes (amiloride-sensitive sodium influx, flame photometry)
# Format: cell-based, Kaninchen
# Conditions: hyperosmolar salt-sucrose medium, pH 7,4, 37°C, read-out: IC50 Inhibition des Na^+/H^+-Exchangers
# From the text: Inhibition des Na^+/H^+-Exchangers von Kaninchenerythrocyten Weiße Neuseeland-Kaninchen (Ivanovas) erhielten eine Standard-Diät mit 2% Cholesterin für sechs Wochen, um den Na^+/H^+-Austausch zu aktivieren und so den Na^+-Influx in die Erythrocyten via Na^+/H^+-Austausch flammenphotometrisch bestimmen zu können. Das Blut wurde den Ohrarterien entnommen und durch 25 IE Kalium-Heparin ungerinnbar gemacht. Ein Teil jeder Probe wurde zur Doppelbestimmung des Hämatokrits durch Zentrifugieren benutzt. Aliquots von jeweils 100 µl dienten zur Messung des Na^+-Ausgangsgehalts der Erythrocyten.
# Um den Amilorid-sensitiven Natrium-Influx zu bestimmen, wurden 100 µl jeder Blutprobe in jeweils 5 ml eines hyperosmolaren Salz-Sucrose-Mediums (mmol/l: 140 NaCl, 3 KCl, 150 Sucrose, 0,1 Ouabain, 20 Tris-hydroxymethylaminomethan) bei pH 7,4 und 37°C inkubiert. Die Erythrocyten wurden danach dreimal mit eiskalter MgCl2-Ouabain-Lösung (mmol/l: 112 MgCl2, 0,1 Ouabain) gewaschen und in 2,0 ml destilliertem Wasser hämolysiert. Der intrazelluläre Natriumgehalt wurde flammenphotometrisch bestimmt.
# Der Na^+-Nettoinflux wurde aus der Differenz zwischen Natrium-Ausgangswerten und dem Natriumgehalt der Erythrocyten nach Inkubation errechnet. Der Amilorid-hemmbare Natrium-Influx ergab sich aus der Differenz des Natriumgehalts der Erythrocyten nach Inkubation mit und ohne Amilorid 3 x 10^-4 mol/l. Auf diese Weise wurde auch bei den erfindungsgemäßen Verbindungen verfahren.
# T1 sequence (P23791 whole entry): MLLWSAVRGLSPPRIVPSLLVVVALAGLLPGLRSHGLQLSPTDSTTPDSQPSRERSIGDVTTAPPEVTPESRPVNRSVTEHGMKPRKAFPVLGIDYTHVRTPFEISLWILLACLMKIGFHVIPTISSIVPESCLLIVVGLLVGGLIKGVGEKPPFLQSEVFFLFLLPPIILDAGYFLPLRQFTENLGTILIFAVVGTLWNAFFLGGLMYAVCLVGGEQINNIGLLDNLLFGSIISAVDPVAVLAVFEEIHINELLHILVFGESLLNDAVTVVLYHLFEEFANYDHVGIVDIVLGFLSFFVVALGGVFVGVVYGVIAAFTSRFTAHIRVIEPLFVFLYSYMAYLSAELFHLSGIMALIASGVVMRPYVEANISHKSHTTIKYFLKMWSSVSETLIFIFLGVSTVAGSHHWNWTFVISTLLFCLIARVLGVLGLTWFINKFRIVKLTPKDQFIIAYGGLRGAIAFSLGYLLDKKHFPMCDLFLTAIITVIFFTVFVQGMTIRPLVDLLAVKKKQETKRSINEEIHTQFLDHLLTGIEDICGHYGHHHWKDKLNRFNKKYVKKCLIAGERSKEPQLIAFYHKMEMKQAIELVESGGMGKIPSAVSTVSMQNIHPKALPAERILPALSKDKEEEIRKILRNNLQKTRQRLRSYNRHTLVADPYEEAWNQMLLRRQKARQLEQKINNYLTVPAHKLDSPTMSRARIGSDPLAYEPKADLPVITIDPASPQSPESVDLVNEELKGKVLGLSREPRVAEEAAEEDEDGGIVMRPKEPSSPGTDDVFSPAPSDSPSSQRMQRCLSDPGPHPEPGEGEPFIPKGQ
row,Compound,IC50
1,"COc1ccc(C(F)(F)F)c(OC)c1C(=O)N=C(N)N [Beispiel 6, 3-Trifluormethyl-2,6-dimethoxy-benzoylguanidin-hydrochlorid]",> 10 µM
2,"NC(N)=NC(=O)c1c(F)cccc1C(F)(F)F [Beispiel 5, 2-Fluor-6-trifluormethyl-benzoylguanidin-hydrochlorid]",10 µM
3,"NC(N)=NC(=O)c1c(F)c(F)c(O)c(F)c1F [Beispiel 3, 4-Hydroxy-2,3,5,6-tetrafluor-benzoylguanidin-hydrochlorid]",0.3 µM
4,"N=C(N)NC(=O)c1c(Cl)cccc1Cl [Beispiel 1, 2,6-Dichlor-benzoylguanidin-hydrochlorid]",10 µM
5,"NC(N)=NC(=O)c1c(F)cccc1F [Beispiel 4, 2,6-Difluor-benzoylguanidin-hydrochlorid]",> 10 µM
6,"COc1ccc(Cl)c(OC)c1C(=O)N=C(N)N [Beispiel 2, 3-Chlor-2,6-dimethoxy-benzoylguanidin-hydrochlorid]",8.5 µM
